Where “and” joins values, the source holds several entries; their conditions need not be identical. Identical values can stand only once. Like-named read-outs stand apart in the source and are kept apart here. Blank lines part the entries; values can stand above or below the compound they belong to.
Legend:
[1] = Thermal Gravimetric Analysis (TGA), temperature of 10 wt % loss (volatility); format: physicochemical; settings: for TGA T-10%: Temperature at which 10% wt. loss is observed during TGA analysis; for TGAT=10% point: temperature at which 10 wt % loss occurs, TGA experiment
Source text: A reliable indication of the volatility of benzotriazole stabilizers is the temperatures at which 10 wt % loss occurs (TGAT=10%).

[2] = Solubility in xylene (compatibility); format: physicochemical
[3] = UV absorption in toluene (λmax, molar absorptivity); format: physicochemical
Source text: The high molar absorptivity of 3,3′-bis-(2H-benzotriazol-2-yl)-5,5′-di-tert-octyl-1,1′-biphenyl-2,2′-diol, ε310=25,600 (toluene) and ε353=28,300 (toluene) are indicative of high ultraviolet absorption efficiency of the benzotriazole stabilizers of the present invention.
The bis-benzotriazoles of the invention absorb UV light at longer wavelengths than their non-dimeric or alkylene bridged dimeric counterparts. For example, the dimeric 3,3′-bis-(2H-benzotriazol-2-yl)-5,5′-di-tert-octyl-1,1′-biphenyl-2,2′-diol of the present invention absorbs at λmax(toluene)=353 nm. In contrast, the monomeric 2-(2H-benzotriazol-2-yl)-4-tert-octyl-phenol absorbs at a much lower wavelength, at λmax(toluene)=346 nm. Furthermore, the methylene bridged 2,2′-methylenedi{6-(2-benzotriazolyl)-4-tert-octyl-phenol} has an absorption at λmax(toluene)=350 nm, also substantially shorter than that of the bis-benzotriazoles of the present invention.
PRODUCT A: 3,3′-bis-(2H-benzotriazol-2-yl)-5,5′-di-tert-octyl-1,1′-biphenyl-2,2′-diol (COMPOUND 1) (0.033 g), characterized by ^1H nuclear magnetic resonance spectroscopy (NMR), ultraviolet and mass spectroscopy; λmax(toluene): 310 and 353 nm; ε310=25,600; ε353=28,300; high resolution electron impact mass spectroscopy (HREI/MS): m/e=Found: 644.3815; Calculated: 644.3839; and
PRODUCT B: 3-(2H-Benzotriazol-2-yl)-5,5′-di-tert-octyl-1,1′-biphenyl-2,2′-diol (0.144 g), characterized by ^1H nuclear magnetic resonance spectroscopy (NMR), ultraviolet spectroscopy, and mass spectroscopy; λmax(toluene): 332 nm; ε332=15,400; high resolution electron impact mass spectroscopy (HREI/MS): m/e=Found: 527.3498; Calculated: 527.3512.

[4] = Florida weathering (5° south, direct, ASTM G7-89) of acrylic melamine coating; settings: Table 11
Procedure: COMPOUND 1 was formulated in a clear acrylic melamine coatings which were applied to aluminum panels for accelerated weathering testing as follows. COMPOUND 1 (2% based on total resin solids) was pre-dissolved in xylenes, alone and in combination with Sanduvor® 3058 HALS (0.5% or 1.0% based on total resin solids), and added to the clear acrylic melamine formulation given in Table 6. A formulation containing Tinuvin® 328 (2% based on total resin solids) was also prepared for comparison purposes. Unpolished aluminum panels, measuring 4″×12″, obtained from ACT Laboratories, Inc. (Hillsdale, Mich.) were coated with the clear coat formulation of Table 6. The draw-down technique, using WC-52 Wire-Cators™ (Leneta co., Ho-Ho-Kus, N.J.), was used to apply the clear coats to the panels. Coatings 2 mil thick were obtained. The clear coats were allowed to flash for 10 min. at ambient temperature and cured for 30 min. at 135° C.
The coatings of Example 13 were weathered in Miami, Fla. The testing was performed in accordance with ASTM G7-89 at a tilt angle of […] from the horizontal facing south with specimens mounted unbacked.

TGA T-10% [1]: 381 °C
TGAT=10% point [1]: 384 °C
solubility in xylene [2]: 6.0 gram/100 ml
λmax(toluene) [3]: 310 nm and 353 nm
molar absorptivity ε310 ([3]; 310 nm, in M-1 cm-1 (unit assumed)): 25,600
molar absorptivity ε353 ([3]; 353 nm, in M-1 cm-1 (unit assumed)): 28,300
λmax(toluene) ([3]; listed as 3,3′-bis-(2H-benzotriazol-2-yl)-5,5′-di-tert-octyl-1,1′-biphenyl-2,2′-diol): 353 nm
efficiency in reducing total color change (delta E) relative to the unstabilized coating [4]: comparable efficiency
melting point: 209 to 211 °C
SMILES: CC(C)(C)CC(C)(C)c1cc(-c2cc(C(C)(C)CC(C)(C)C)cc(-n3nc4ccccc4n3)c2O)c(O)c(-n2nc3ccccc3n2)c1 [COMPOUND 1, 3,3′-bis-(2H-benzotriazol-2-yl)-5,5′-di-tert-octyl-1,1′-biphenyl-2,2′-diol]

melting point: 234 °C
SMILES: CC(C)(C)c1cc(-c2cc(C(C)(C)C)cc(-n3nc4ccccc4n3)c2O)c(O)c(-n2nc3ccccc3n2)c1 [COMPOUND 2, 3,3′-bis-(2H-benzotriazol-2-yl)-5,5′-di-tert-butyl-1,1′-biphenyl-2,2′-diol]

TGA T-10% [1]: 383 °C
SMILES: Oc1c(-c2cccc(-n3nc4ccccc4n3)c2O)cccc1-n1nc2ccccc2n1 [COMPOUND 5, 3,3′-bis-(2H-benzotriazol-2-yl)-1,1′-biphenyl-2,2′-diol]

TGA T-10% [1]: 380 °C
SMILES: CC(C)(C)CC(C)(C)c1cc(Cc2cc(C(C)(C)CC(C)(C)C)cc(-n3nc4ccccc4n3)c2O)c(O)c(-n2nc3ccccc3n2)c1 [LA-31 ®, 2,2′-Methylenedi [Bis-2-benzotriazolyl)-4-tert-octylphenol]

TGAT=10% point [1]: 370 °C
solubility in xylene [2]: 2.5 gram/100 ml
λmax(toluene) [3]: 350 nm
SMILES: CC(C)(C)CC(C)(C)c1cc(Cc2cc(C(C)(C)CC(C)(C)C)cc(-n3nc4ccccc4n3)c2O)c(O)c(-n2nc3ccccc3n2)c1 [MIXXIM BB/100®, 2,2′-methylenedi{6-(2-benzotriazolyl)-4-tert-octyl-phenol}, reference compound]

TGA T-10% [1]: 245 °C
TGAT=10% point [1]: 247 °C
λmax(toluene) [3]: 346 nm
SMILES: CC(C)(C)CC(C)(C)c1ccc(O)c(-n2nc3ccccc3n2)c1 [UV-5411, 2-(2H-benzotriazol-2-yl)-4-tert-octyl-phenol]

More lines, now with the values behind:

SMILES: CC(C)(c1ccccc1)c1cc(-c2cc(C(C)(C)c3ccccc3)cc(-n3nc4ccccc4n3)c2O)c(O)c(-n2nc3ccccc3n2)c1 [COMPOUND 3, 3,3′-bis-(2H-benzotriazol-2-yl)-5,5′-di-cumyl-1,1′-biphenyl-2,2′-diol]
TGA T-10% [1]: 377 °C

SMILES: CC(C)(C)CC(C)(C)c1ccc(O)c(-c2cc(C(C)(C)CC(C)(C)C)cc(-n3nc4ccccc4n3)c2O)c1 [PRODUCT B, 3-(2H-Benzotriazol-2-yl)-5,5′-di-tert-octyl-1,1′-biphenyl-2,2′-diol]
λmax(toluene) [3]: 332 nm
molar absorptivity ε332 ([3]; 332 nm): 15,400

SMILES: Cc1ccc(O)c(-n2nc3ccccc3n2)c1 [Tinuvin P ™, 2-(2H-benzotriazol-2-yl)-4-methyl-phenol]
TGA T-10% [1]: 205 °C

SMILES: CCC(C)(C)c1cc(-n2nc3ccccc3n2)c(O)c(C(C)(C)CC)c1 [Tinuvin ® 328, reference compound]
efficiency in reducing total color change (delta E) relative to the unstabilized coating [4]: comparable efficiency

SMILES: CC(C)(c1ccccc1)c1cc(-n2nc3ccccc3n2)c(O)c(C(C)(C)c2ccccc2)c1 [Tinuvin ®-234, 2-(2H-Benzotriazol-2yl)-4,6-bis (α,α-dimethylbenzyl) phenol]
TGA T-10% [1]: 312 °C
